ChEMBL document CHEMBL4325911, “Discovery of N-(piperidin-3-yl)-N-(pyridin-2-yl)piperidine/piperazine-1-carboxamides as small molecule inhibitors of PCSK9” (Bioorg Med Chem Lett, 2018)

Legend:
80S Ribosome [1] = test: Binding affinity to 80S ribosome in human HuH7 cells harboring human PCSK9 (1 to 152 residues)-proLuc assessed as inhibition of PCSK9 mRNA translation after overnight incubation by luciferase reporter gene assay; format: cell-based; details: huh-7
[2] = Lipophilicity, log D of the compound by shake flask method; format: physicochemical; details: octanol/water
[3] = Intrinsic clearance in human liver microsomes; format: ADME, Microsome; details: read-out: CLH
[4] = Permeability in RRCK cells measured up to 1.5 hrs; format: ADME, cell-based, Canis lupus familiaris, MDCKII-LE; details: dog, MDCK; read-out: permeability
80S Ribosome [5] = test: Binding affinity to 80S ribosome in human HeLa cells lysates using human full length PCSK9 encoding mRNAs assessed as inhibition of PCSK9 mRNA translation after 45 mins by Steady-Glo luciferase reporter gene assay; format: cell-free
[6] = biological target: Voltage-gated inwardly rectifying potassium channel KCNH2 (Homo sapiens, UniProt Q12809); test: Binding affinity to human ERG by dofetilide fluorescence polarization binding assay
Chain of Voltage-gated inwardly rectifying potassium channel KCNH2 (Q12809 whole entry): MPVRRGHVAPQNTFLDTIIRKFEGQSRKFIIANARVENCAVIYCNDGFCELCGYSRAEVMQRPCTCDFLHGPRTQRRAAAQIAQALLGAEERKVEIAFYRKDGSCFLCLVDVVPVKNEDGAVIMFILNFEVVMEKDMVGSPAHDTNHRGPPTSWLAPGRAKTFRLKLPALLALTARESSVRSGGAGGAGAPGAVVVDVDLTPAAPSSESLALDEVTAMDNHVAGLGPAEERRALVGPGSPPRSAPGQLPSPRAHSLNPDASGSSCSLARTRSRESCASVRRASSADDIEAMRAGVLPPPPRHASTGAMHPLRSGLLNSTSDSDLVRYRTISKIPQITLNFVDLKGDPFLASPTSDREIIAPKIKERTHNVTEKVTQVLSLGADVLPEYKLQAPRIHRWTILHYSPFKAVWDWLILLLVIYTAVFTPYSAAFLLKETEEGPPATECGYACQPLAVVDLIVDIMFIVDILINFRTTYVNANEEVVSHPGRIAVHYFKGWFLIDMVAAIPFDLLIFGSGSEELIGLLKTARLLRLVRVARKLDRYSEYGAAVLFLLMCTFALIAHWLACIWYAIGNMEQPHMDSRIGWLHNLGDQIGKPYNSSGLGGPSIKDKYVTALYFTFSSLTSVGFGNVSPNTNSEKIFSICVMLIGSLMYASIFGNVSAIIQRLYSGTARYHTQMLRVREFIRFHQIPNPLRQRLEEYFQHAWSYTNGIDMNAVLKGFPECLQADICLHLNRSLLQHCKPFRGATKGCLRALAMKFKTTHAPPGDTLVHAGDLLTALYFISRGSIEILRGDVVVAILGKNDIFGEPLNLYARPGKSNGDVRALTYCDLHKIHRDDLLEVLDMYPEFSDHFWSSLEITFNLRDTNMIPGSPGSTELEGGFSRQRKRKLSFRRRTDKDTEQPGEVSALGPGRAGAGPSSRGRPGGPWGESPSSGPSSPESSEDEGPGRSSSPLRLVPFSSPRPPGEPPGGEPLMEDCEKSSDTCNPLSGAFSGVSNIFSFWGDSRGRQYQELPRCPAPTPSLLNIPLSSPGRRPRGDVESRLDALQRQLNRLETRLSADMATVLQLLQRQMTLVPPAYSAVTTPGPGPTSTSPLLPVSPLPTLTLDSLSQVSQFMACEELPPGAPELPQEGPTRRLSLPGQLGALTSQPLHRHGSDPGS

Bone marrow cell = test: Cytotoxicity against rat bone marrow cells assessed as reduction in cell viability after 72 hrs by celltiter glo assay; format: cell-based

Row | Compound | IC50 (80S Ribosome [1]) [µM] | logD [2] | microsomal CLint [3] [µL/min/mg] | Papp at 1.5 h [4] [×10⁻⁶ cm/s] | IC50 (80S Ribosome [5]) [µM] | Ki [6] [µM] | IC50 (Bone marrow cell) [µM]
1 | O=C(N1CCC(c2cnn3cccnc23)CC1)N(c1ncccc1Cl)[C@@H]1CCCNC1 | > 20 | -0.5 | < 8 | 1.8 |  |  | 
2 | COc1ccc(CCC(=O)N(c2nccc3ccccc23)[C@@H]2CCCNC2)cc1 |  | 1 |  |  | 8.04 |  | 
3 | Cc1ccc2c(N3CCN(C(=O)N(c4nccc5ccccc45)[C@@H]4CCCNC4)CC3)noc2c1 | 3.5 | 1.6 | 12.9 | 8.9 |  | 1.2 | 31.1
4 | Cn1ccc2ccnc(N(C(=O)N3CCC(c4ccccc4)CC3)[C@@H]3CCCNC3)c21 |  | 1.4 | 11.8 | 5.2 | 0.5 | 5.7 | 11.7
5 | Cc1cccnc1N(C(=O)N1CCC(c2cnn3cccnc23)CC1)[C@@H]1CCCNC1 |  | 0.2 | < 8 | 1.8 | 0.92 | > 40 | 10.1
6 | Cc1cccnc1N(C(=O)N1CCC(c2ccccc2F)CC1)[C@@H]1CCCNC1 |  | 1 | < 8 | 9.5 | 4.38 | 9.8 | 46.2
7 | Cc1cnc2c(c1)nnn2-c1ccc(CCC(=O)N(c2ncccc2Cl)[C@@H]2CCCNC2)nc1 | 0.85 | 0.7 | 9.3 | 6.2 | 2.27 | 5.9 | 27.1
8 | O=C(N1CCN(c2ccccc2)CC1)N(c1nccc2ccccc12)[C@@H]1CCCNC1 | 12.6 | 0.8 | 13.8 | 5.8 |  | 9.2 | 
9 | O=C(c1ccc(-c2ccccc2)cc1)N(c1nccc2ccccc12)[C@@H]1CCCNC1 |  |  |  | 0.3 |  |  | 

Now from value to compound, other results behind:

Row | IC50 (80S Ribosome [1]) [µM] | logD [2] | microsomal CLint [3] [µL/min/mg] | Papp at 1.5 h [4] [×10⁻⁶ cm/s] | IC50 (80S Ribosome [5]) [µM] | Compound | Ki [6] [µM] | IC50 (Bone marrow cell) [µM]
10 | 2.21 | 0.9 | < 9.3 | 12.8 | 2.08 | O=C(N1CCC(c2ccccc2)CC1)N(c1ncccc1Cl)[C@@H]1CCCNC1 | 14.3 | 
11 | 1.73 | 1.4 | 13.9 | 3.9 | 1.54 | O=C(N1CCC(c2ccccc2)CC1)N(c1nccc2ccccc12)[C@@H]1CCCNC1 | 4.1 | 12.7
12 | 2.05 | 0.7 | < 8 | 8.7 | 2.33 | Cc1cccnc1N(C(=O)N1CCC(c2ccccc2)CC1)[C@@H]1CCCNC1 | > 25 | 
13 |  | 0.3 | < 8 | 11.5 | 3.63 | Cc1nccnc1N(C(=O)N1CCC(c2ccccc2)CC1)[C@@H]1CCCNC1 | 24.8 | > 100
